One may read the EC50 as the concentration at which the effect is half-maximal. A higher EC50 goes with a need for much substance.

SMILES strings stand for the structures.

In experiment [1] the target is T1, PPAR-α (Homo sapiens, UniProt Q07869).
T1 construct: purchased Invitrogen / Thermo Fisher Scientific (assay service)
T1 sequence (Q07869 239-466 limits assumed): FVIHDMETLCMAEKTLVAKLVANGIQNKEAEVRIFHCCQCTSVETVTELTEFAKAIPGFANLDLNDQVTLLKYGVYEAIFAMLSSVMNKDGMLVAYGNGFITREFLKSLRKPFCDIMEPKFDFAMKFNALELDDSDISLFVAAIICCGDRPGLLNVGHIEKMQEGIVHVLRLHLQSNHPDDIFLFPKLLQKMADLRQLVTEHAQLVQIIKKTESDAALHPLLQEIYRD
The experiment in a line: TR-FRET LanthaScreen PPAR coactivator recruit assay, PPAR-α (PGC1a peptide). The format is biochemical. The text has this:
Binding of agonist to the PPAR LBD causes a conformational change around helix 12 in the LBD, resulting in higher affinity for the coactivator peptide. When the terbium label on the anti-GST antibody complexed with PPAR is excited at 340 nm, energy is transferred to the fluorescein label on the coactivator peptide and detected as emission at 520 nm. […] Based on the biology of the PPAR-coactivator peptide interaction, this ligand EC50 is a composite value representing the amount of ligand required to bind to receptor, effect a conformational change, and recruit coactivator peptide. Potency of compounds show similar order to their activity (Table 3). […] Ligands such as TZDs show little or no binding to PPAR-δ. Compound 11 and 15 have ortho or meta substituted benzoic acid as an acidic head group. Their acidic head groups might seem to be too large to fit within the narrow PPAR-δ pocket. In contrast, the compound 1 and 2 contains an acetic acid head group that complements the narrow PPAR-δ ligand binding. […] The potency and selectivity of compound 11 could be explained by harmonization of steric effect of acidic head group, length and rigidity of hydrophobic tail, and properly tuned aromatic linker system.
EC50 of compounds were determined by recruitment of transcriptional coactivators using the TR-FRET based Lanthascreen coactivator assays (Invitrogen, Carlsbad, CA, USA). Which was serviced by Thermo Fisher Scientific (Medicon, WI, USA) according to the LanthaScreen TR-FRET coregulator protocol and assay conditions. Coregulator peptide PGC1a, TRAP220/DRIP2 and C33 was used for the coactivator recruit assay of PPAR-α, -γ, and -δ, respectively.
In general terms: In TR-FRET formats the signal depends on donor and acceptor labels being close together.

The target of the next experiment is T2, PPAR-δ (Homo sapiens, UniProt Q03181).
T2 construct: host or cells: HEK293t
T2 sequence (Q03181 1-441): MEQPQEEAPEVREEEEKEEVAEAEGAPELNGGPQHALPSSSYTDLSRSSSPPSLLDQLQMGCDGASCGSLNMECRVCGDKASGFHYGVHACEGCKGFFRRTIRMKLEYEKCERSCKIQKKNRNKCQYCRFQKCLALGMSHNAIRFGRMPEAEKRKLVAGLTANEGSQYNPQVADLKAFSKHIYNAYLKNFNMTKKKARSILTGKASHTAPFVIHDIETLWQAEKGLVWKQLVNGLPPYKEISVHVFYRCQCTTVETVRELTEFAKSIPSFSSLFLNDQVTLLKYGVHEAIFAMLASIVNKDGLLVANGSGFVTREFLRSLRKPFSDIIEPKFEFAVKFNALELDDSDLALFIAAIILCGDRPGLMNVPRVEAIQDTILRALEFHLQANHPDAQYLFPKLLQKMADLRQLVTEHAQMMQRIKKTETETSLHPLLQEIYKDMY
Put plainly: cell-based PPAR transactivation (luciferase) assay, PPAR-δ. Particulars: compounds 10 µM; relative to maximum activation with GW0742 (10 μM); PPAR-Luc in HEK293t cells; read-out: % max PPAR-δ. Here is the method: (§1) The PPAR activities of the synthesized dichloroanilide-linked indole analogs were assessed using a standard cell-based transactivation assay in CV-1 cells. GW7647 [42], pioglitazone, and GW0742 [43] were used as positive controls for PPAR-α, -γ, and -δ, respectively. These three positive controls presented the maximum activation for each PPAR subtype. The activity of the compounds was presented as the activation percentage (%) relative to the maximum values of the positive controls at the indicated concentrations.
(§2) Transient transfection and luciferase assay was carried out. CV-1 cells were seeded in 48-well plates at a density of 1.5 × 10^5 cells/well in Dulbecco’s modified Eagle’s medium (DMEM) with containing 10% fetal bovine serum (FBS). The cells were transiently transfected with plasmid mixtures containing PPAR-α/γ expression vector and tk-PPRE-luciferase (Luc) vector for 6 h and then treated with the samples for 24 h. HEK293t cells were seeded in a 60-mm dish at a density of 1.5 × 10^6 cells/dish. After transfection with the plasmid mixtures containing PPAR-δ expression vector and Luc vector for 6 h, the cells were transferred to a 96-well plate and treated with the samples. To normalize the transfection efficiency, a β-galactosidase plasmid was cotransfected. The luciferase activity in the cell lysates was measured using a luciferase assay system (Promega Corp., Madison, WI, USA), and the β-galactosidase activity was determined by measuring the absorbance at 410 nm using an ELISA plate reader. The data were expressed as the relative luciferase activity divided by the β-galactosidase activity. All constructs were kindly gifted by Dr. Ronald M. Evans at The Salk Institute (La Jolla, CA, USA).

For experiment [2], the target named is T3, PPAR-α (Homo sapiens, UniProt Q07869).
T3 construct: host or cells: CV-1
T3 sequence (Q07869 1-468): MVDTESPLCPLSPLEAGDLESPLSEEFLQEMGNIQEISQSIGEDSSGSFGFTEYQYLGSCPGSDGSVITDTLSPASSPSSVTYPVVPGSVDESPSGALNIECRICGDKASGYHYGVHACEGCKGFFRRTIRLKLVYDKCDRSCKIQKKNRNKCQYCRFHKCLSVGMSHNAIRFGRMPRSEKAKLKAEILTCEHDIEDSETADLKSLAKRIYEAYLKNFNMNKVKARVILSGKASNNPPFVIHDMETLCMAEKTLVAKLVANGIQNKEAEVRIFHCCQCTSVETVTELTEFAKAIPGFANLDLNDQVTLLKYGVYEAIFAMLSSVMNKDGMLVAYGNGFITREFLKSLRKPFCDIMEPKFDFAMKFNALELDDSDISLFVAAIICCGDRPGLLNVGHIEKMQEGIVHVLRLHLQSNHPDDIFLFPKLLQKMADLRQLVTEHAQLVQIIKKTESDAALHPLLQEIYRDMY
Put plainly: cell-based PPAR transactivation (luciferase) assay, PPAR-α. Particulars: 24 h; compounds 10 µM; relative to maximum activation with GW7647 (10 µM); PPAR-Luc in CV-1 cells; read-out: % max PPAR-α. Here is the method: as §1, §2

Compound `O=C(COc1ccc2c(c1)c(Cc1ccccc1)cn2Cc1ccccc1C(=O)O)Nc1ccc(Cl)cc1Cl` [Compound 18, 2-((3-Benzyl-5-(2-((2,4-dichlorophenyl)amino)-2-oxoethoxy)-1H-indol-1-yl)methyl)benzoic acid] registered an EC50 at PPAR-α [1] of over 100 µM. For the same compound, the values for the activation at 10 µM at PPAR-δ and at PPAR-α [2] were 75.88 ± 0.35% and 23.79 ± 0.11%, respectively.
Turning to `O=C(COc1ccc2ccn(Cc3ccccc3C(=O)O)c2c1)Nc1ccc(Cl)cc1Cl` [Compound 13, 2-((6-(2-((2,4-Dichlorophenyl)amino)-2-oxoethoxy)-1H-indol-1-yl)methyl)benzoic acid], the EC50 at PPAR-α [1] was 16.9 µM. The figures for the activation at 10 µM on PPAR-δ and at PPAR-α [2] were 86.7 ± 0.53% and 51.84 ± 0.25%, respectively.
Compound `O=C(COc1ccc2ccn(Cc3cccc(C(=O)O)c3)c2c1)Nc1ccc(Cl)cc1Cl` [Compound 15, 3-((6-(2-((2,4-Dichlorophenyl)amino)-2-oxoethoxy)-1H-indol-1-yl)methyl)benzoic acid] displayed an EC50 on PPAR-α [1] of over 100 µM. Moreover, the activation at 10 µM on PPAR-δ was found to be 86.09 ± 0.31%; at PPAR-α [2] it was 78.15 ± 0.04%.
Compound `O=C(COc1ccc2c(ccn2Cc2ccccc2C(=O)O)c1)Nc1ccc(Cl)cc1Cl` [Compound 12, 2-((5-(2-((2,4-Dichlorophenyl)amino)-2-oxoethoxy)-1H-indol-1-yl)methyl)benzoic acid] displayed an EC50 on PPAR-α [1] of 3.87 µM. In addition, the values for the activation at 10 µM on PPAR-δ and on PPAR-α [2] were 94.86 ± 0.2% and 105.1 ± 0.41%, respectively.

For the origin of these results see publication PMC6213020, “Identification of a Novel PPAR-γ Agonist through a Scaffold Tuning Approach” (International Journal of Molecular Sciences, 2018).
